# Data reported in patent US12655171B2, “Compounds for activating invariant natural killer T-cells and methods of use in eliminating inflammatory senescent cells” (Deciduous Therapeutics, Inc., priority 2021, dated 2026).
# System: human iTCR
# Experiment: In vitro activation of human iTCR through Jurkat reporter cell line (JiNKT, GFP under NFkB promoter) with drug-loaded BWSTIM cells
# Type: cell-based
# Conditions: BWSTIM loaded 4 hours, co-culture with JiNKT 18 to 24 hours; FIG. 1
# Procedure: In order to determine the human iTCR activation potential induced by the compounds described herein, a jurkat cell line (JiNKT) was transfected with the human iTCR, and GFP under the NFkB promoter (cell line licensed from the Medical University of Vienna). A BWS147 cell line (BWSTIM) was also transfected with CD80 and CD1d to act as the antigen-presenting cell.
# (§1) DCD molecules or α-GalCer were both dissolved in DMSO at a 5 mg/mL stock solution. BWSTIM cells were loaded with DCD molecules or α-GalCer at varying concentrations for 4 hours at 37° C. at a concentration of 20 k cells/well in 200 μL of media in a u-bottom 96 well dish. BWSTIM cells were washed 2× with media, then incubated with JiNKT cells at a concentration of 80 k cells/well in a u-bottom 96 well dish. Cells were co-cultured for 18 to 24 hours. The percentage of cells expressing high levels of GFP was measured through flow cytometry (after gating out the mCD45+ BWSTIM cells).
# A jurkat cell line (JiNKT) was transfected with the human iTCR, and GFP under the NFkB promoter. A BWS147 cell line (BWSTIM) was also transfected with CD80 and CD1d to act as the antigen-presenting cell. A mouse iNKT hybridoma cell line (DN3.2) was also used as the iNKT. […]
# as §1, with “GVK” for “DCD”, “compounds” for “DCD molecules or α-GalCer at varying concentrations”, “for” for “for 18 to”, “cytometry. 1 μg/mL of molecule GVK1a, GVK1b, GVK1c, or GVK1f was incubated with BWSTIM+JiNKT, and compared to α-GalCer.” for “cytometry (after gating out the mCD45+ BWSTIM cells).”
row,"EC50 of the dose response based on percentage GFP+ cells, compared to α-GalCer",SMILES
1,lower EC50s compared to α-GalCer,CCCCCCCCCCCCCC[C@@H](O)[C@@H](O)[C@H](COC1OC(CO)C(O)C(O)C1O)NC(=O)CCCCCCCCCCCCCCCCCCCCCCCC12CC(F)(C1)C2 (some centres unmarked) [DCD-155]
2,lower EC50s compared to α-GalCer,CCCCCCCCCCCCCC[C@@H](O)[C@@H](O)[C@H](COC1OC(CO)C(O)C(O)C1O)NC(=O)CCCCCCCCCCC1CCOC1 (some centres unmarked) [DCD-121]
3,lower EC50s compared to α-GalCer,CCCCCCCCCCCCCC[C@@H](O)[C@@H](O)[C@H](COC1OC(CO)C(O)C(O)C1O)NC(=O)CCCCCCCCOCC1CCOCC1 (some centres unmarked) [DCD-141]
4,lower EC50s compared to α-GalCer,CCCCCCCCCCCCCC[C@@H](O)[C@@H](O)[C@H](COC1OC(CO)C(O)C(O)C1O)NC(=O)CCCCCCCCCCC1(C)COC1 (some centres unmarked) [DCD-119]
5,lower EC50s compared to α-GalCer,CCCCCCCCCCCCCC[C@@H](O)[C@@H](O)[C@H](COC1OC(CO)C(O)C(O)C1O)NC(=O)CCCCCCCCCCCC12CC(F)(C1)C2 (some centres unmarked) [DCD-113]
6,lower EC50s compared to α-GalCer,CCCCCCCCCCCCCC[C@@H](O)[C@@H](O)[C@H](COC1OC(CO)C(O)C(O)C1O)NC(=O)CCCCCCCOCCC1CCOCC1 (some centres unmarked) [DCD-140]
7,lower EC50s compared to α-GalCer,CCCCCCCCCCCCCC[C@@H](O)[C@@H](O)[C@H](COC1OC(CO)C(O)C(O)C1O)NC(=O)CCCCCCCCCCC1CCN(C(=O)OC(C)(C)C)C1 (some centres unmarked) [DCD-128]
8,lower EC50s compared to α-GalCer,CCCCCCCCCCCCCC[C@@H](O)[C@@H](O)[C@H](COC1OC(CO)C(O)C(O)C1O)NC(=O)CCCCCCCCCCCCCCCCCCCCCC12CC(F)(C1)C2 (some centres unmarked) [DCD-151]
9,lower EC50s compared to α-GalCer,CCCCCCCCCCCCCC[C@@H](O)[C@@H](O)[C@H](COC1OC(CO)C(O)C(O)C1O)NC(=O)CCCCCOCCCCC1CCOCC1 (some centres unmarked) [DCD-144]
10,lower EC50s compared to α-GalCer,CCCCCCCCCCCCCC[C@@H](O)[C@@H](O)[C@H](COC1OC(CO)C(O)C(O)C1O)NC(=O)CCCCCCCCCCCCCCCCCCCCCC1COC1 (some centres unmarked) [DCD-150]
11,lower EC50s compared to α-GalCer,CCCCCCCCCCCCCC[C@@H](O)[C@@H](O)[C@H](COC1OC(CO)C(O)C(O)C1O)NC(=O)CCCCCCCCCOC1CCS(=O)(=O)CC1 (some centres unmarked) [DCD-138]
12,lower EC50s compared to α-GalCer,CCCCCCCCCCCCCC[C@@H](O)[C@@H](O)[C@H](COC1OC(CO)C(O)C(O)C1O)NC(=O)CCCCCCCCCCN1CCOCC1.Cl (some centres unmarked) [DCD-130]
13,lower EC50s compared to α-GalCer,CCCCCCCCCCCCCC[C@@H](O)[C@@H](O)[C@H](COC1OC(CO)C(O)C(O)C1O)NC(=O)CCCCCCCCCCS(=O)(=O)C(C)C (some centres unmarked) [DCD-137]
14,lower EC50s compared to α-GalCer,CCCCCCCCCCCCCC[C@@H](O)[C@@H](O)[C@H](COC1OC(CO)C(O)C(O)C1O)NC(=O)CCCCCCCCCCC12C3C4C5C3C1C5C42 (some centres unmarked) [DCD-114]
15,lower EC50s compared to α-GalCer,CCCCCCCCCCCCCC[C@@H](O)[C@@H](O)[C@H](COC1OC(CO)C(O)C(O)C1O)NC(=O)CCCCCCCCCCN1CCS(=O)(=O)CC1 (some centres unmarked) [DCD-136]
16,lower EC50s compared to α-GalCer,CCCCCCCCCCCCCC[C@@H](O)[C@@H](O)[C@H](COC1OC(CO)C(O)C(O)C1O)NC(=O)CCCCCCCCCCCC12C3C4C5C3C1C5C42 (some centres unmarked) [DCD-103]
17,lower EC50s compared to α-GalCer,CCCCCCCCCCCCCC[C@@H](O)[C@@H](O)[C@H](COC1OC(CO)C(O)C(O)C1O)NC(=O)CCCCCCOCCCC1CCOCC1 (some centres unmarked) [DCD-143]
18,lower EC50s compared to α-GalCer,CCCCCCCCCCCCCC[C@@H](O)[C@@H](O)[C@H](COC1OC(CO)C(O)C(O)C1O)NC(=O)CCCCCCCCCCN1CCSCC1.Cl (some centres unmarked) [DCD-133]
19,lower EC50s compared to α-GalCer,CCCCCCCCCCCCCC[C@@H](O)[C@@H](O)[C@H](COC1OC(CO)C(O)C(O)C1O)NC(=O)CCCCCCCCCOC1CCOCC1 (some centres unmarked) [DCD-139]
20,lower EC50s compared to α-GalCer,CCCCCCCCCCCCCC[C@@H](O)[C@@H](O)[C@H](COC1OC(CO)C(O)C(O)C1O)NC(=O)CCCCCCCCCCC1CN(C(=O)OC(C)(C)C)C1 (some centres unmarked) [DCD-125]
21,lower EC50s compared to α-GalCer,CCCCCCCCCCCCCC[C@@H](O)[C@@H](O)[C@H](COC1OC(CO)C(O)C(O)C1O)NC(=O)CCCCCCCCCCC1COC1 (some centres unmarked) [DCD-118]
22,lower EC50s compared to α-GalCer,CCCCCCCCCCCCCC[C@@H](O)[C@@H](O)[C@H](COC1OC(CO)C(O)C(O)C1O)NC(=O)CCCCCCCCCCCCCCCCCCCCCCC12CC(F)(C1)C2 (some centres unmarked) [DCD-148]
23,lower EC50s compared to α-GalCer,CCCCCCCCCCCCCC[C@@H](O)[C@@H](O)[C@H](COC1OC(CO)C(O)C(O)C1O)NC(=O)CCCCCCCCCCCCCCCCCCCCCCC1COC1 (some centres unmarked) [DCD-149]
24,lower EC50s compared to α-GalCer,CCCCCCCCCCCCCC[C@@H](O)[C@@H](O)[C@H](COC1OC(CO)C(O)C(O)C1O)NC(=O)CCCCCCCCCCC1CCS(=O)(=O)CC1 (some centres unmarked) [DCD-127]
25,lower EC50s compared to α-GalCer,CCCCCCCCCCCCCC[C@@H](O)[C@@H](O)[C@H](COC1OC(CO)C(O)C(O)C1O)NC(=O)CCCCCCCCCCC1CCOCC1 (some centres unmarked) [DCD-122]
26,lower EC50s compared to α-GalCer,CCCCCCCCCCCCCC[C@@H](O)[C@@H](O)[C@H](COC1OC(CO)C(O)C(O)C1O)n1cc(CCCCCCN(CCCCCCC)CCCCCCC)nn1 (some centres unmarked) [DCD-104]

# Same assay, conditions: ranking among tested compounds, at the lowest concentration
row,SMILES,% GFP+
1,CCCCCCCCCCCCCC[C@@H](O)[C@@H](O)[C@H](COC1OC(CO)C(O)C(O)C1O)NC(=O)CCCCCCCCCCC1CCS(=O)(=O)CC1 (some centres unmarked) [DCD-127],highest % GFP+ at the lowest concentration

# System: primary human iNKT cells
# Experiment: Cytokine secretion of primary human iNKT cells co-cultured with drug-loaded BWSTIM cells
# Type: cell-based
# Conditions: BWSTIM loaded with 10 μg/mL; FIG. 3A
# Procedure: In order to determine the activation profile induced by the compounds described herein, primary human iNKT cells were co-cultured with drug-loaded BWSTIM cells.
# Day 0: PBMCs were isolated from human blood using the STEMCELL TECHNOLOGIES™ SepMate™ PBMC isolation system. iNKT cells were then selected using the Miltenyi NKT magnetic cell separation kit.
# Day 2: DCD molecules or α-GalCer were both dissolved in DMSO at a 5 mg/mL stock solution. BWSTIM cells were fixed with mitomycin C, then loaded with 10 μg/mL of DCD molecules or α-GalCer for 4 hours at 37° C. at a concentration of 20 k cells/well in 200 μL of media in a u-bottom 96 well dish. Cells were co-cultured with 80 k 6B11+ selected primary human iNKT cells.
# D4: Media was collected. Cytokines were measured using the Satorious 4Plex kit on the iQue3 cytometer.
# GVK molecules or α-GalCer were both dissolved in DMSO at a 5 mg/mL stock solution. BWSTIM cells were loaded with compounds for 4 hours at 37° C. at a concentration of 20 k cells/well in 200 μL of media in a u-bottom 96 well dish. Cells were co-cultured with 100 k 6B11+ selected primary human iNKT cells. Media was collected 2 days later. Cytokines were measured using the Satorious 4Plex kit on the iQue3 cytometer.
row,SMILES,IFNγ secretion compared to the no-compound control
1,CCCCCCCCCCCCCC[C@@H](O)[C@@H](O)[C@H](COC1OC(CO)C(O)C(O)C1O)n1cc(CCCCCCN(CCCCCCC)CCCCCCC)nn1 (some centres unmarked) [DCD-104],significantly higher levels

# Same assay, conditions: BWSTIM loaded with 10 μg/mL; FIG. 3B
row,SMILES,IL6 secretion compared to the no-compound control
1,CCCCCCCCCCCCCC[C@@H](O)[C@@H](O)[C@H](COC1OC(CO)C(O)C(O)C1O)n1cc(CCCCCCN(CCCCCCC)CCCCCCC)nn1 (some centres unmarked) [DCD-104],significantly higher levels

# Same assay, conditions: BWSTIM loaded with 10 μg/mL; FIG. 3C
row,SMILES,TNFα secretion compared to the no-compound control
1,CCCCCCCCCCCCCC[C@@H](O)[C@@H](O)[C@H](COC1OC(CO)C(O)C(O)C1O)n1cc(CCCCCCN(CCCCCCC)CCCCCCC)nn1 (some centres unmarked) [DCD-104],significantly higher levels

# System: serum IFNγ
# Experiment: In vivo serum IFNγ (ELISA) in C57BL/6J mice
# Conditions: 2 μg I.P.; twenty hours post-injection; FIG. 4A
# Procedure: In order to determine the expansion induced by the molecules described herein, molecules were injected into C57BL/6J mice. Serum IFNγ levels and the expansion of iNKT cells within splenocytes was measured 4 days post-IP injection.
# Eight weeks old C57BL/6J mice were injected (I.P.) with 2 μg of α-GalCer or DCD molecules. Molecules were either dissolved in DMSO at a 5 mg/mL stock solution, or formulated into liposomes through thin-film rehydration, then extrusion through 200 nm filters. Liposome-based formulations were constructed using soy phosphatidylcholine, cholesterol, and DCD or α-GalCer in a 2:1:0.15 ratio. Twenty hours post-injection, blood was collected from the tail to measure the level of serum IFNγ using an ELISA kit from Biolegend. Four days post-injection, the mice were sacrificed and the spleenocytes were isolated. The percentage of iNKT cells within the spleens was measured using flow cytometry, selecting for live cells and mouse CD1d-α-GalCer tetramer+ cells.
row,SMILES,average serum IFNγ compared to α-GalCer
1,CCCCCCCCCCCCCC[C@@H](O)[C@@H](O)[C@H](COC1OC(CO)C(O)C(O)C1O)NC(=O)CCCCCCCCCCCCCCCCCCCCCCCC12CC(F)(C1)C2 (some centres unmarked) [DCD-155],higher than the average serum IFNγ of C57BL/6J mice treated with α-GalCer
2,CCCCCCCCCCCCCCCCCC[Si](C)(C)CCCCCCC(=O)N[C@@H](COC1OC(CO)C(O)C(O)C1O)[C@H](O)[C@H](O)CCCCCCCCCCCCCC (some centres unmarked) [DCD-152],higher than the average serum IFNγ of C57BL/6J mice treated with α-GalCer
